The target of assay [1] is T1, human GLP-1 receptor (Homo sapiens, UniProt P43220).
T1 construct: expressed in transfected cells; host or cells: BHK cells (parent line BHKTS13), clone FCW467-12A; membrane preparation
Nature of the assay: GLP-1 receptor binding: competitive binding assay (125I-GLP-1, SPA) on isolated membranes at low and high HSA.

For assay [2], the target named is T1, human GLP-1 receptor. Put plainly: In vitro potency: CRE luciferase reporter gene assay in BHK cells expressing the human GLP-1 receptor. Format: cell-based. The following applies: whole cell reporter gene assay, BHK cells, human GLP-1 receptor; average of at least two replicates; read-out: EC50. Summed up:
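Whole-cell assay in stably transfected BHK cells carrying CRE-driven firefly luciferase, 5×10^3 cells/well, in assay buffer with 2% ovalbumin and 0.2% Pluronic F-68. Compound working solutions were 0.2 μM.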
For orientation: In a reporter assay the amount or activity of a reporter protein is the signal.

The mark [3] stands for this setting: Low HSA IC50, low HSA (max. 0.001% final assay concentration).
[4] abbreviates: high HSA (2.0% final assay concentration), read-out: High HSA IC50.

Read-outs that look alike come from different tables or passages of the source.

T1 sequence (P43220 24-463): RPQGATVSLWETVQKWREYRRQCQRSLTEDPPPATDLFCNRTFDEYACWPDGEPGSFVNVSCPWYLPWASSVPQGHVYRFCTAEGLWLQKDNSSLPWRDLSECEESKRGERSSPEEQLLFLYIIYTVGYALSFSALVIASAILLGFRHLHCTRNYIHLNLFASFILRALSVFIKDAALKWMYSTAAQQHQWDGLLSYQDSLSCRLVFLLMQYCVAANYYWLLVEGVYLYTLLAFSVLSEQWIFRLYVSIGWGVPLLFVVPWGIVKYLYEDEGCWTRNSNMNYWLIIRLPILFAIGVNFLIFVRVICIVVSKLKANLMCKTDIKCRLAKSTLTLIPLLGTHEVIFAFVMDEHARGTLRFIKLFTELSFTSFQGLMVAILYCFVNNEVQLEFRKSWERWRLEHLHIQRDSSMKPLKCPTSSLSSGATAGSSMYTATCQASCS

Take `CC[C@H](C)[C@H](NC(=O)[C@H](Cc1ccccc1)NC(=O)[C@H](CCC(=O)O)NC(=O)[C@H](CCCNC(=N)N)NC(=O)[C@H](C)NC(=O)[C@H](C)NC(=O)[C@H](CCC(N)=O)NC(=O)[C@H](CCC(=O)O)NC(=O)[C@H](CCC(=O)O)NC(=O)[C@H](CC(C)C)NC(=O)[C@H](Cc1ccc(O)cc1)NC(=O)[C@H](CO)NC(=O)[C@H](CO)NC(=O)[C@@H](NC(=O)[C@H](CC(=O)O)NC(=O)[C@H](CO)NC(=O)[C@@H](NC(=O)[C@H](Cc1ccccc1)NC(=O)[C@@H](NC(=O)CNC(=O)[C@H](CCC(=O)O)NC(=O)C(C)(C)NC(=O)[C@@H](N)Cc1c[nH]cn1)[C@@H](C)O)[C@@H](C)O)C(C)C)C(=O)N[C@@H](C)C(=O)N[C@@H](Cc1c[nH]c2ccccc12)C(=O)N[C@@H](CC(C)C)C(=O)N[C@H](C(=O)N[C@@H](CCCNC(=N)N)C(=O)NCC(=O)N[C@@H](CCCNC(=N)N)C(=O)N[C@@H](CCCCNC(=O)CN(CCCNC(=O)COCCOCCNC(=O)COCCOCCNC(=O)COCCOCCNC(=O)COCCOCCNC(=O)CC[C@H](NC(=O)[C@H]1CC[C@H](CNC(=O)CCCNC(=O)CCCCCCCCCCCCCCCS(=O)(=O)O)CC1)C(=O)O)CCCNC(=O)COCCOCCNC(=O)COCCOCCNC(=O)COCCOCCNC(=O)COCCOCCNC(=O)CC[C@H](NC(=O)[C@H]1CC[C@H](CNC(=O)CCCNC(=O)CCCCCCCCCCCCCCCS(=O)(=O)O)CC1)C(=O)O)C(=O)O)C(C)C` [Example 19, N{Epsilon-37}-[2-[bis[3-[[2-[2-[2-[[2-[2-[2-[[2-[2-[2-[[2-[2-[2-[[(4S)-4-carboxy-4-[[4-[[4-(16-sulfohexadecanoylamino)butanoylamino]methyl]cyclohexanecarbonyl]amino]butanoyl]amino]ethoxy]ethoxy]acetyl]amino]ethoxy]ethoxy]acetyl]amino]ethoxy]ethoxy]acetyl]amino]ethoxy]ethoxy]acetyl]amino]propyl]amino]acetyl]-[Aib8,Glu22,Arg26,Arg34,Lys37]-GLP-1-(7-37)-peptide]: the results for the IC50 on human GLP-1 receptor [1] (setting [3]) and at human GLP-1 receptor [1] (setting [4]) were 0.15 nM and 42 nM, respectively. Further, the EC50 (commonly the concentration needed to bring the measured effect to its halfway point) at human GLP-1 receptor [2] came out at 0.0014 nM.

As to `CC[C@H](C)[C@H](NC(=O)[C@H](Cc1ccccc1)NC(=O)[C@H](CCC(=O)O)NC(=O)[C@H](CCCNC(=N)N)NC(=O)[C@H](C)NC(=O)[C@H](C)NC(=O)[C@H](CCC(N)=O)NC(=O)[C@H](CCC(=O)O)NC(=O)[C@H](CCC(=O)O)NC(=O)[C@H](CC(C)C)NC(=O)[C@H](Cc1ccc(O)cc1)NC(=O)[C@H](CO)NC(=O)[C@H](CO)NC(=O)[C@@H](NC(=O)[C@H](CC(=O)O)NC(=O)[C@H](CO)NC(=O)[C@@H](NC(=O)[C@H](Cc1ccccc1)NC(=O)[C@@H](NC(=O)CNC(=O)[C@H](CCC(=O)O)NC(=O)C(C)(C)NC(=O)[C@@H](N)Cc1c[nH]cn1)[C@@H](C)O)[C@@H](C)O)C(C)C)C(=O)N[C@@H](C)C(=O)N[C@@H](Cc1c[nH]c2ccccc12)C(=O)N[C@@H](CC(C)C)C(=O)N[C@H](C(=O)N[C@@H](CCCNC(=N)N)C(=O)NCC(=O)N[C@@H](CCCNC(=N)N)C(=O)N[C@@H](CCCCNC(=O)CN(CCCNC(=O)COCCOCCNC(=O)COCCOCCNC(=O)COCCOCCNC(=O)COCCOCCNC(=O)CC[C@H](NC(=O)[C@H]1CC[C@H](CNC(=O)CCCCCCCCCCCCCCCS(=O)(=O)O)CC1)C(=O)O)CCCNC(=O)COCCOCCNC(=O)COCCOCCNC(=O)COCCOCCNC(=O)COCCOCCNC(=O)CC[C@H](NC(=O)[C@H]1CC[C@H](CNC(=O)CCCCCCCCCCCCCCCS(=O)(=O)O)CC1)C(=O)O)C(=O)O)C(C)C` [Example 22, N{Epsilon-37}-[2-[bis[3-[[2-[2-[2-[[2-[2-[2-[[2-[2-[2-[[2-[2-[2-[[(4S)-4-carboxy-4-[[4-[(16-sulfohexadecanoylamino)methyl]cyclohexanecarbonyl]amino]butanoyl]amino]ethoxy]ethoxy]acetyl]amino]ethoxy]ethoxy]acetyl]amino]ethoxy]ethoxy]acetyl]amino]ethoxy]ethoxy]acetyl]amino]propyl]amino]acetyl]-[Aib8,Glu22,Arg26,Arg34,Lys37]-GLP-1-(7-37)-peptide], the concentration for half-maximal inhibition (IC50) – broadly, the concentration that gives 50% inhibition – on human GLP-1 receptor [1] (setting [3]) is 0.12 nM; on human GLP-1 receptor [1] (setting [4]), 47 nM. For the same compound, the EC50 on human GLP-1 receptor [2] came out at 0.0016 nM.

These data come from patent US11572398B2, “GLP-1 derivatives and uses thereof” (Novo Nordisk A/S, priority 2014, dated 2023).
